The values below come from PubChem BioAssay (NCI).

Some test systems named below: SNB-19 CNS; UACC-257 melanoma; HCT-116 colon; SF-539 CNS; MDA-MB-435; T-47D breast; ACHN renal; COLO 205 colon; KM12 colon; EKVX NSCLC.
Assay in all cases: NCI anticancer screen, dose series, 48 h

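Protocol summary: plate cells (96-well), add compound at 5 concentrations, incubate 48 h, interpolate endpoints linearly. Definition used: TGI = concentration required for complete inhibition of growth.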

For `COC(=O)N1CC(=O)C(C(=O)NC23CC4CC(CC(C4)C2)C3)C1` (configuration not stated), the TGI in the assay with SNB-19 CNS, in the assay with UACC-257 melanoma, with HCT-116 colon, in the assay with SF-539 CNS, with MDA-MB-435 and in the assay with T-47D breast was over 100 µM throughout. Further, the TGI with ACHN renal, with COLO 205 colon and in the assay on KM12 colon was over 100 µM each time.
As to `COc1ccc(/C=C2/CSCC3=C2NC(=S)NC3c2ccc(OC)c(OC)c2OC)c(OC)c1OC` (configuration not stated), the TGI with SNB-19 CNS was 51.5 µM; with UACC-257 melanoma it was 67.7 µM; with HCT-116 colon, 60 µM; with SF-539 CNS, 49.5 µM; with MDA-MB-435, 61.4 µM; in the assay on T-47D breast it was over 100 µM. The TGI in the assay on ACHN renal is 52.5 µM; in the assay with EKVX NSCLC it was over 100 µM; in the assay on COLO 205 colon, 76.9 µM; in the assay with KM12 colon, 34.1 µM.
For the compound `COc1cccc(C23CCCC(C2)NCC3Br)c1OC` (configuration not stated), the TGI was over 100 µM in the assay on SNB-19 CNS; over 100 µM with UACC-257 melanoma; over 100 µM with HCT-116 colon; over 100 µM with MDA-MB-435; over 100 µM in the assay with T-47D breast; 73.8 µM in the assay on ACHN renal. For the same compound, the TGI in the assay with EKVX NSCLC was over 100 µM; with COLO 205 colon it was 27.1 µM; in the assay on KM12 colon, over 100 µM.
For `CCc1c2c(cc3c1CC1(C3)Cc3cc4c(c(C(=O)OC)c3C1)CCCC4)CCCC2` (configuration not stated), the TGI in the assay with UACC-257 melanoma is over 100 µM; with HCT-116 colon, 65.1 µM; in the assay with SF-539 CNS, over 100 µM; in the assay on MDA-MB-435, over 100 µM; in the assay with T-47D breast, over 100 µM; with ACHN renal, over 100 µM. The TGI is 83.9 µM in the assay on EKVX NSCLC, over 100 µM in the assay with COLO 205 colon and over 100 µM with KM12 colon.
Regarding `Clc1cc2nn(C3CCCCO3)nc2cc1Cl` (configuration not stated), the TGI in the assay on SNB-19 CNS, in the assay with UACC-257 melanoma, in the assay with HCT-116 colon, with SF-539 CNS, in the assay on MDA-MB-435 and in the assay on T-47D breast was over 100 µM throughout. Besides, the TGI with ACHN renal, with EKVX NSCLC, in the assay on COLO 205 colon and with KM12 colon was over 100 µM in each case.
For the compound `CCOC(=O)c1cc(-n2nnc3ccccc32)cn1C`, the TGI with SNB-19 CNS, with UACC-257 melanoma, in the assay with HCT-116 colon, with SF-539 CNS, in the assay on MDA-MB-435 and in the assay on T-47D breast was over 10 µM in each case. In addition, the TGI in the assay on ACHN renal, in the assay with EKVX NSCLC, in the assay on COLO 205 colon and in the assay on KM12 colon was over 10 µM in each case.
As to `CC1(c2sccc2Cl)CC(c2sccc2Cl)=C(C#N)C(=C(C#N)C#N)N1` (configuration not stated), the TGI in the assay on SNB-19 CNS turned out to be 38.5 µM; in the assay on UACC-257 melanoma, 39.2 µM; in the assay on HCT-116 colon, 32.2 µM; in the assay on SF-539 CNS it was 36.7 µM; with MDA-MB-435 it was 48.3 µM; in the assay on T-47D breast it was 42.1 µM. The TGI with ACHN renal turned out to be 32.5 µM; in the assay with EKVX NSCLC it was 34 µM; in the assay on COLO 205 colon it was 41.8 µM; with KM12 colon it was 46 µM.
As to `O=C1CSC(c2c[nH]c3ccccc23)N1c1ccc(Cl)cc1` (configuration not stated), the TGI in the assay on SNB-19 CNS, in the assay with UACC-257 melanoma, with HCT-116 colon, in the assay with SF-539 CNS, with MDA-MB-435 and in the assay on T-47D breast was over 100 µM each time. The TGI with ACHN renal, in the assay with EKVX NSCLC, in the assay with COLO 205 colon and in the assay with KM12 colon was over 100 µM in each case.
Regarding `N#CC(N=Nc1ccccc1C(=O)O)C(N)=O` (configuration not stated), the TGI in the assay on SNB-19 CNS, in the assay with UACC-257 melanoma, in the assay on HCT-116 colon, in the assay with MDA-MB-435, in the assay with T-47D breast and in the assay on ACHN renal was over 100 µM throughout. The TGI in the assay on EKVX NSCLC and in the assay on KM12 colon was over 100 µM throughout.
Consider `CCOC(=O)/C=C(\C(=O)OCC)n1ccc(=O)n(Cc2cnnn2CCCCOC(C)=O)c1=O`, for which the TGI with UACC-257 melanoma was 27.4 µM; in the assay on HCT-116 colon it was over 45.3 µM; in the assay with SF-539 CNS, 5.44 µM; in the assay on MDA-MB-435, 22.9 µM; in the assay with T-47D breast, 17.4 µM; in the assay with ACHN renal, 5.52 µM. Further, the TGI was found to be 24.8 µM in the assay on EKVX NSCLC, 5.8 µM with COLO 205 colon and 30.5 µM in the assay with KM12 colon.
Consider `Oc1ccc([C@H]2c3c(O)cc(O)cc3C3c4c(cc(O)cc4[C@@H]2[C@H]2c4cc(O)cc5c4C(c4cc(O)cc(O)c4[C@@H]2c2ccc(O)cc2)[C@@H](c2ccc(O)cc2)O5)O[C@@H]3c2ccc(O)cc2)cc1` (some centres not stated), for which the TGI was over 100 µM in the assay on SNB-19 CNS; over 100 µM in the assay with UACC-257 melanoma; over 100 µM with HCT-116 colon; 5.33 µM in the assay with SF-539 CNS; over 100 µM in the assay on MDA-MB-435; over 100 µM with T-47D breast. In addition, the TGI in the assay on ACHN renal is over 100 µM; in the assay on EKVX NSCLC, over 100 µM; with COLO 205 colon it was 8.15 µM; in the assay on KM12 colon it was over 100 µM.
For `c1cc(-c2ccc(-c3ccc(-c4ccc(-c5ccncc5)o4)cc3)o2)ccn1`, the TGI was 39.7 µM in the assay on SNB-19 CNS; 29.6 µM in the assay on UACC-257 melanoma; 29.6 µM in the assay with HCT-116 colon; 33.4 µM with MDA-MB-435; 40.9 µM in the assay with T-47D breast; 64.6 µM in the assay with ACHN renal. For the same compound, the TGI was found to be 45 µM with EKVX NSCLC, 30.2 µM with COLO 205 colon and 32.2 µM in the assay with KM12 colon.
Regarding `CCCNC(=S)N/N=C(\C)c1ccc(S(=O)(=O)N(C)c2ccccc2)cc1`, the TGI in the assay with SNB-19 CNS is over 87.3 µM; with UACC-257 melanoma, over 100 µM; in the assay on HCT-116 colon it was over 100 µM; in the assay on SF-539 CNS, 21.7 µM; with MDA-MB-435, over 100 µM; in the assay with T-47D breast, over 100 µM. Moreover, the TGI is over 64.9 µM in the assay with ACHN renal, over 100 µM in the assay on EKVX NSCLC, over 100 µM in the assay with COLO 205 colon and over 100 µM in the assay with KM12 colon.
For `COC(=O)C1CCC(=O)N1C(c1cc(OC)c(OC)c(OC)c1)c1cc(OC)c(OC)c(OC)c1` (configuration not stated), the TGI in the assay with SNB-19 CNS, with UACC-257 melanoma, with HCT-116 colon, in the assay on SF-539 CNS, with MDA-MB-435 and with T-47D breast was over 100 µM in each case. Further, the TGI in the assay with ACHN renal, with EKVX NSCLC and in the assay with KM12 colon was over 100 µM each time.
